Source: publication PMC6891695, “Evaluation of Antifouling Potential and Ecotoxicity of Secondary Metabolites Derived from Red Algae of the Genus Laurencia” (Marine Drugs, 2019)
Where two headings read alike, the source gives them in different places.

What was measured:
[1] = in vivo; assay type: in vivo; details: Amphibalanus amphitrite, in vivo, read-out: LC50 Mortality; for LC50 at 24 h: 24 h exposure; for LC50 at 48 h: 48 h exposure; for LC50 at 72 h: 72 h exposure
Description: (§1) Adult A. amphitrite (Cirripedia, Balanidae) were collected from boat docks at Port Mikrolimano and Floisvos, Athens, Greece. Animals were cleaned of epibionts with a small hard brush and meticulously identified as individuals of the species. Adult barnacles were kept in separate aerated glass tanks (20 L) containing 200-μm filtered natural seawater at 27 °C and a 12:12 L:D photoperiod. Tanks were fed with 24-h hatched Artemia sp. (Branchiopoda) nauplii and Tetraselmis suecica (Chlorodendrophyceae) and Skeletonema costatum (Bacillariophyceae) algae each day and seawater was changed on alternate days. Upon stress to induce oviposition (exposure to air for 24 h or immersion in fresh water for 5 h), adults were returned to seawater for larval release. Hatched nauplii were attracted to a point light source, collected and placed into a beaker containing 2 or 3 L of 0.7 μm GF/F (GE Healthcare, Little Chalfont, UK )-filtered natural seawater at a density of approximately 1–2 nauplii/mL with gentle aeration. Nauplii were maintained at 27 °C at a 12:12 L:D photoperiod on a diet of C. gracilis (Bacillariophyceae) provided at a density of 2 × 10^5 cells/mL. Cultured in these conditions, nauplii metamorphosed to cyprids in 5 days. Aliquots of these cyprids were collected with a wide-mouthed Pasteur pipette and aged at 4 °C for 1 day prior to use in settlement assays. Only batches of cyprids that were active and had numerous oil cells, representing energy reserves, were used in settlement assays.
(§2) Assays were conducted by adding 10 cyprids into individual wells of a 24-well polystyrene sterile microplate (Orange Scientific, Braine l’Alleud, Belgium) with 2 mL of artificial sea water (ASW) (25‰) and various concentrations of the chemical compounds as listed in Table 1. These experiments were repeated at least three times with four replicates for each concentration of any given compound (n = 120 cyprids/compound). Stock solutions for all compounds were prepared in methanol (Scharlab, Barcelona, Spain) and serial dilutions were prepared in 0.7 μm (GF/F, GE Healthcare, Little Chalfont, UK), filtered sea water to have a final concentration of 2.5% methanol in each assay solution. Plates were covered and sealed with Parafilm® to avoid evaporation and incubated at 25 °C away from any light source and examined after 24, 48 and 72 h. Each animal was inspected under a stereomicroscope and its condition was recorded. […] Both permanently attached and metamorphosed individuals were counted as settled or juveniles. The remainder were counted as ‘no metamorphosis’, i.e. animals that responded to light touch and were still cyprids at the end of the experiments with no overt signs of metamorphosis.
(§3) For EC50 or IC50 (the concentration that results in 50% stimulation or inhibition relative to the control) calculations in GraphPad Prism v.6, all data were fitted to the curve according to the following models for normalized response: Y = 100/(1 + 10^((X − LogIC50))) or Y = 100/(1 + 10^((LogEC50 − X))) depending on the trend of the curve.

[2] = tested on: cyprids of A. amphitrite; assay: whole plant or invertebrate; assay type: in vivo; details: for EC50 / IC50: Amphibalanus amphitrite; for EC50: read-out: EC50 No Metamorphosis; for EC50 values for settlement inhibition of barnacle cyprids (in words): consistently, 24-72 h
Description: as §1, §2, §3

[3] = tested on: RTL-W1 cell line; assay: RTL-W1 crystal violet assay (cell viability); assay type: cell-based, rainbow trout; details: for EC50: Oncorhynchus mykiss, RTL-W1, Crystal violet assay, 48 h incubation; for crystal violet assay EC50 (in words): RTL-W1
Description: (§4) The RTL-W1 cell line, a non-transformed rainbow trout liver cell line that has already been used in environmental toxicity assays, was established from the normal liver of an adult rainbow trout by proteolytic dissociation of liver fragments. RTL-W1 cells were cultured in 75 cm^2 culture flasks (Orange Scientific, Braine l’Alleud, Belgium) at 20 °C in Leibovitz’s (L-15, Sigma-Aldrich, St. Louis, MO, USA) medium supplemented with 5% fetal bovine serum (FBS) and 1% L-glutamine in CO2-free incubator. For the cytotoxicity assays of the selected secondary metabolites, cells were seeded at 3 × 10^4 cells/well density in a 96-well tissue culture plate (Orange Scientific Braine l’Alleud, Belgium) in 100 μL culture medium/well for 2 days before the assays. Three different cytotoxicity protocols were used: 1) The alamar blue/resazurin fluorometric/colorimetric cell viability assay to assess the metabolic capacity and mitochondrial function; 2) the crystal violet cell viability assay for indirect quantification of cell death; and 3) the neutral red cell proliferation assay for lysosomal activity. Two days after seeding the cells, cultures were incubated with various concentrations of selected secondary metabolites at 20 °C for 48 h before cell viability was assessed. […] For the alamar blue/resazurin fluorometric/colorimetric cell viability assay, 100 μL of 3 μg/100 μL Resazurin sodium salt (Sigma-Aldrich, St. Louis, MO, USA) in incubation medium was added on each well and incubated under sterile conditions at 20 °C for 4 h. For the crystal violet cell viability assay, after 48 h of incubation with each secondary metabolite, the culture medium was aspirated and cells were washed twice with sterile dd. H2O. The final wash was aspirated and 50 μL of 0.5% (w/v) crystal violet staining solution (20% methanol in dd. H2O) was added to each well followed by incubation for 20 min at room temperature on a bench rocker with a frequency of 20 oscillations per minute. The staining solution was then aspirated and the plate was washed four times with sterile dd. H2O and left to air-dry without its lid for 3 h at room temperature. Next, 200 μL of methanol was added to each well, and the plate was incubated with its lid on for 20 min at room temperature on a bench rocker with a frequency of 20 oscillations per minute. For the neutral red cell proliferation assay, after 48 h of incubation with each secondary metabolite, the culture medium was aspirated and cells were washed twice with phosphate-buffered saline (PBS, pH 7.4). Cells were then incubated with 100 μL of a 40 μg/mL neutral red staining solution in culture medium at 20 °C for 4 h followed by two washes with 150 μL of PBS. Then cells were incubated with 100 μL neutral red destain solution (50% ethanol, 49% dd. H2O, 1% glacial acetic acid) for 10 min on a bench rocker with a frequency of 80 oscillations per minute. Absorbance was read at 570 nm for alamar blue/resazurin and crystal violet and at 540 nm for neutral red using a Tecan infinite M200 Pro microplate reader. For each assay and each secondary metabolite, a minimum of four independent dose–response experiments with three replicates each were carried out. Calculations were carried out using detailed formulas (AbCam, Cambridge, UK, and results were analyzed with GraphPad Prism v.6.
as §3

[4] = tested on: RTL-W1 cell line; assay: RTL-W1 neutral red assay (lysosome activity); assay type: cell-based, rainbow trout; details: Oncorhynchus mykiss, 48 h incubation
Description: as §4, with “For the neutral red cell proliferation assay, after 48 h of incubation with each secondary metabolite, the culture medium was aspirated and cells were washed twice with phosphate-buffered saline (PBS, pH 7.4). Cells were then incubated with 100 μL of a 40 μg/mL neutral red staining solution in culture medium at 20 °C for 4 h followed by two washes with 150 μL of PBS. Then cells were incubated with 100 μL neutral red destain solution (50% ethanol, 49% dd. H2O, 1% glacial acetic acid) for 10 min on a bench rocker with a frequency of 80 oscillations per minute.” left out, “For each assay and each secondary metabolite, a minimum of four independent dose–response experiments with three replicates each were carried out.” left out, “v.6. […]” for “v.6.”

[5] = 24 h, read-out: IC50 Settlement
[6] = 48 h, read-out: IC50 Settlement
[7] = 72 h, read-out: IC50 Settlement

Structure (SMILES) | LC50 at 24 h [1] | LC50 at 48 h [1] | LC50 at 72 h [1] | EC50 ([2]; 24 h) | IC50 [2, 5] | EC50 ([2]; 48 h) | IC50 [2, 6] | EC50 ([2]; 72 h) | IC50 [2, 7] | EC50 values for settlement inhibition of barnacle cyprids (in words) [2] | EC50 [3] | EC50 [4] | IC50 ([2]; read-out: IC50 settlement-inhibiting activity) | animals not progressing to metamorphosis ([2]; in vivo) | crystal violet assay EC50 (in words) [3]
C=C(C1CCC(C)(O)C(Br)C1)C1C(Br)C2C(CCC2(C)O)C1(C)C (stereo not drawn) [Compound 19, neorogioldiol] | 413 µM | 366 µM | 573 µM | 52.8 µM | 0.4 µM | 57.9 µM | 0.915 µM | 70.4 µM | 0.756 µM | sub-micromolar | 12.8 µM | > 1000 µM | – | – | –
CC1=C2CC[C@@](C)(Cl)[C@@H](Br)C[C@]2(C)[C@@H](C)[C@@H](Br)[C@@H]1O [Compound 9, perforenol] | 76.2 µM | 116 µM | 49.1 µM | 38.2 µM | 0.52 µM | 47.4 µM | 0.66 µM | 57.8 µM | 0.5 µM | sub-micromolar | 16 µM | > 1000 µM | ~0.5 µM | – | –
CC(C)[C@@H]1CC=C[C@H]2[C@H]3[C@](C)(CC[C@]12CBr)[C@@H](Br)CC[C@@]3(C)O [Bromosphaerol, reference compound] | 17.9 µM | 4.57 µM | 2.5 µM | 0.45 µM | 0.58 µM | 0.267 µM | 0.624 µM | 0.561 µM | 0.836 µM | – | 0.575 µM | 144 µM | – | large percentage of animals not progressing to metamorphosis | sub-micromolar
C=CC(C)(O)CC[C@@H]1C(=C)CC[C@@H](Br)[C@@]1(C)CCC1OC1(C)C (stereo partly drawn) [Compound 18] | 26.2 µM | 26.3 µM | 20.3 µM | 45.4 µM | 0.046 µM | 50.4 µM | 0.076 µM | 48.5 µM | 0.316 µM | sub-micromolar | 0.456 µM | 138 µM | – | – | sub-micromolar
